According to PMC6218510, “Step Sizes and Rate Constants of Single-headed Cytoplasmic Dynein Measured with Optical Tweezers” (Scientific Reports, 2018):

Legend:
[1] = biological target: T1, D384GB (D384 with GFP at the linker N-terminus and BFP in AAA2) (Homo sapiens, UniProt Q14204); assay: BFP-GFP FRET efficiency of linker swing against ATP, steady state; assay type: biochemical; details: no microtubules; ATP-regenerating system (creatine phosphate / creatine phosphate kinase); 100 nM dynein; conformational read-out, not a turnover Km; read-out: Km^E (k1/kT)
T1 construct: gene DYNC1H1; Gly1288-Glu4646; N-terminal FLAG, BCCP and AcGFP kept; BFP inserted between Glu2404 and Gly2405 (AAA2); Sf9; monomer

[2] = biological target: T1, D384GB (D384 with GFP at the linker N-terminus and BFP in AAA2); assay: ATPase assay, phosphate release (EnzChek, absorbance […] nm); assay type: biochemical; details: basal, no microtubules; 25 °C; read-out: Michaelis-Menten constant

T1 sequence (Q14204 1288-2404): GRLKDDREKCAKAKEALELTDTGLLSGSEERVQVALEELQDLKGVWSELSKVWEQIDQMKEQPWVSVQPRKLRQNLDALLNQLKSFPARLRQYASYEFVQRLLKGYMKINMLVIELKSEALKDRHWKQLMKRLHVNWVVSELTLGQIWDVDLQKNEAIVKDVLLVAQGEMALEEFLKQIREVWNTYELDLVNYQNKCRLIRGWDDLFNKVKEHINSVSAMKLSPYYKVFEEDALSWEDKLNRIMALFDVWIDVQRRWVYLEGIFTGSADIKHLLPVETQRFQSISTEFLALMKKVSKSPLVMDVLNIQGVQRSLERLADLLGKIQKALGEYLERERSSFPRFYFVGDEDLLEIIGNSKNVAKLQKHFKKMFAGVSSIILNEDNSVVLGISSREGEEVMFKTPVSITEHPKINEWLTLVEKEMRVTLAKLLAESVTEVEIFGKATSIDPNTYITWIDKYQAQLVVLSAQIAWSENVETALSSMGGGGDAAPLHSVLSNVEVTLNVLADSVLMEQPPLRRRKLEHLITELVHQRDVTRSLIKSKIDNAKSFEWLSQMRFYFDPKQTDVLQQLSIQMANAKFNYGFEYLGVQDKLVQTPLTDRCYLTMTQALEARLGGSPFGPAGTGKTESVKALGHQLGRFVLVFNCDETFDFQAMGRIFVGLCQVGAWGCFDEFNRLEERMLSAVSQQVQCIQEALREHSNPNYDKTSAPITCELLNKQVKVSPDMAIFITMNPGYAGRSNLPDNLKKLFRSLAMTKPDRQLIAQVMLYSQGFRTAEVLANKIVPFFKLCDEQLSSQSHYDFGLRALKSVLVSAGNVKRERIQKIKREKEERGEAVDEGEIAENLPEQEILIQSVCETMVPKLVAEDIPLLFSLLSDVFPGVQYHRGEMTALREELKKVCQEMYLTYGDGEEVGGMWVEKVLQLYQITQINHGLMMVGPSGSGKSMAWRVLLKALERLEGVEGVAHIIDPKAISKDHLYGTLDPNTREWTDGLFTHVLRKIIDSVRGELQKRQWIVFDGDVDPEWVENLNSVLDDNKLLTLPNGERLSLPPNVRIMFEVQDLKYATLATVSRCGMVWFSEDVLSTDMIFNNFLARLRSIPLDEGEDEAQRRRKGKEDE
T1 sequence (Q14204 2405-4646): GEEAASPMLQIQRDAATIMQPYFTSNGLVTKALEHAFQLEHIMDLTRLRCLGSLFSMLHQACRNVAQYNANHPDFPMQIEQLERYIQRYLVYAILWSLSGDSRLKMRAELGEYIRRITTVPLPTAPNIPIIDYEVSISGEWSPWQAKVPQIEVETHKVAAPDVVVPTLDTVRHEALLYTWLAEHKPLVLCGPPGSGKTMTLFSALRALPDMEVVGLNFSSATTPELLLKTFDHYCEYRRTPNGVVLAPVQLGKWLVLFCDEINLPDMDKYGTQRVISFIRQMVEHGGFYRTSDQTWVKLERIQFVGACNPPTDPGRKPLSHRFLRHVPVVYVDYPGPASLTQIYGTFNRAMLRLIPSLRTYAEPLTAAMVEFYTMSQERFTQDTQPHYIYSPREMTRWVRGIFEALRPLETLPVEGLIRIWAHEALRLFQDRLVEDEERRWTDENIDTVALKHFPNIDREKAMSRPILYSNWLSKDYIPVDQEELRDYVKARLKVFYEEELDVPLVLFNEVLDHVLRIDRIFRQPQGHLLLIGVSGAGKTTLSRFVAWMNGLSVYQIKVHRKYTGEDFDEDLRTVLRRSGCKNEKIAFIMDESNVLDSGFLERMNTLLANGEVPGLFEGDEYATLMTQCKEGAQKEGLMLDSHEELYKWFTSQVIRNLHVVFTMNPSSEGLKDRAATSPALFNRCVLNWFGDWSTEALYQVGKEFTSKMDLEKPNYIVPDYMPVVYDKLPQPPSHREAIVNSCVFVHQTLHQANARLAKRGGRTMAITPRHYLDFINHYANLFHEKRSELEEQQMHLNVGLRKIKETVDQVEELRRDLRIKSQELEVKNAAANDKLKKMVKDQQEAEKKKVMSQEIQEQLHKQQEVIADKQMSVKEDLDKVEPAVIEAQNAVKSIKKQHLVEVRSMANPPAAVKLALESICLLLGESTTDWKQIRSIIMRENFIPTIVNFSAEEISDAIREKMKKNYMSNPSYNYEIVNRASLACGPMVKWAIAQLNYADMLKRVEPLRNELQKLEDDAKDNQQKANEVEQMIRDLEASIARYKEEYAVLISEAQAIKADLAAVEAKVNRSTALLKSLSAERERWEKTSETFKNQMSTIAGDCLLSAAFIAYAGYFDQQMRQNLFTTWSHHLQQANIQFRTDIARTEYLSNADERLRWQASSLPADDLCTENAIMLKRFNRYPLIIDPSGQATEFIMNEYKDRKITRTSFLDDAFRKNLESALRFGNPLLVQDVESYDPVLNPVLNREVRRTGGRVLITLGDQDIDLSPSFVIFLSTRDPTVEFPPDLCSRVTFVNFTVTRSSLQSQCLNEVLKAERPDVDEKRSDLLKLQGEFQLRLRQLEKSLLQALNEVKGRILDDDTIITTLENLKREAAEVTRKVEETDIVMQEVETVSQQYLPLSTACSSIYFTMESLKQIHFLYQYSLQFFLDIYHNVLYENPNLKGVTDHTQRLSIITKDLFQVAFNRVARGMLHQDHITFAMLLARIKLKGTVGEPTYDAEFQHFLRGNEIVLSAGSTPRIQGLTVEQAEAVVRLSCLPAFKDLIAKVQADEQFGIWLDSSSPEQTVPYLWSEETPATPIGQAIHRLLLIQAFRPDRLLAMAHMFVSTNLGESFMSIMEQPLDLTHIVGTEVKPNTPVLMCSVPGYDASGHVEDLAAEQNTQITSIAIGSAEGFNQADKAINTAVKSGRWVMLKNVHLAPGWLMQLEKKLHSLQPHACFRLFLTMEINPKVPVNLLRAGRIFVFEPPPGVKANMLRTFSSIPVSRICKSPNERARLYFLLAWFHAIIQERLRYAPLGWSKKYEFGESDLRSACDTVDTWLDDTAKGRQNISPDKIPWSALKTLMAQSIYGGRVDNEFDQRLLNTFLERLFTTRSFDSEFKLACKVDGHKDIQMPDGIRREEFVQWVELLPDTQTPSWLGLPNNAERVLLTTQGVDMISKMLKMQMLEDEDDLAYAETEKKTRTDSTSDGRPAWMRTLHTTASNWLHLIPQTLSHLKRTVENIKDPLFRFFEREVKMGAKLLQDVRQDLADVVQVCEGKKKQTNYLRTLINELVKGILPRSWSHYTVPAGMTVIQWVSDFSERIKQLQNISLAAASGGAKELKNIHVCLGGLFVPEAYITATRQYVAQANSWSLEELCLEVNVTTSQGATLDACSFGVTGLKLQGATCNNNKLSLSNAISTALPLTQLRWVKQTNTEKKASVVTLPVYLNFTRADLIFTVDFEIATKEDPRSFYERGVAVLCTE

Km [1]: 3.3 ± 0.3 µM
Km [2]: 27 ± 3 µM
Structure (SMILES): Nc1ncnc2c1ncn2[C@@H]1O[C@H](COP(=O)(O)OP(=O)(O)OP(=O)(O)O)[C@@H](O)[C@H]1O [ATP]
